Where “and” joins values, the source holds several entries; their conditions need not be identical. Equal entries are not always repeated.
How the values were obtained:
[1] = system: OR52cs; test: cAMP signaling assay (cAMP sensor) in Hana3A cells; assay type: cell-based, human; details: single experiments
Protocol: For cAMP assay, CRE luciferase assay, and surface ELISA, the full-length OR52cs construct was cloned into the pcDNA3.1 vector. The Lucy signal sequence and FLAG peptide sequence were added to the N-terminus. Mutant constructs were generated by site-directed mutagenesis. For BRET assay, eYFP was added at the C-terminus of OR52cs with a GGGGS linker. Rluc was added to Gα for resonance partner (after L99 for Gαs, and I100 for Gαolf, respectively, with GGGGS linker back and forth). […]
(§1) Hana3A cells were seeded on 96-well white microplates and transfected with OR52cs or the corresponding mutants and cAMP sensor (Promega). The medium was exchanged with CO2-independent medium (Gibco) supplemented with 0.375 mg ml^−1 D-luciferin (Nanolight) 48 h after infection, and cells were incubated in the dark at 20 °C for 2 h. Basal luminescence was detected using a Tristar 2 LB 942 multimode reader (Berthold) until it reached a plateau. Subsequently, various concentrations of odorants and forskolin (Sigma-Aldrich) were added to each well, and luminescence was measured again. Data were analyzed and plotted using GraphPad Prism 9.4.1.

[2] = system: OR52cs V158F/V209M; test: cAMP signaling assay, mutant; assay type: cell-based, human; details: for cAMP response: Fig.S8b source data, single experiments
Protocol: (§2) For cAMP assay, CRE luciferase assay, and surface ELISA, the full-length OR52cs construct was cloned into the pcDNA3.1 vector. The Lucy signal sequence and FLAG peptide sequence were added to the N-terminus. Mutant constructs were generated by site-directed mutagenesis. For BRET assay, eYFP was added at the C-terminus of OR52cs with a GGGGS linker. Rluc was added to Gα for resonance partner (after L99 for Gαs, and I100 for Gαolf, respectively, with GGGGS linker back and forth).
as §1

[3] = system: OR52cs V158F; test: cAMP signaling assay, mutant; assay type: cell-based, human; details: for cAMP response: Fig.S8b source data, single experiments
Protocol: as §2, §1

[4] = system: OR52cs R265A; test: CRE luciferase assay in Hana3A cells, mutant; assay type: cell-based, human; details: 100 µM carboxylic acid; Fig.S7a, single experiments
Protocol: as §2
48 h after infection, cells were treated with odorants and incubated at 37 °C for 4 h. […] All values were divided by the Renilla luciferase activity to normalize the effect of cell confluence. All data were analyzed using GraphPad Prism 9.4.1.

[5] = system: OR52cs; test: CRE luciferase assay in Hana3A cells; assay type: cell-based, human; details: for relative fold of CRE luciferase activity: Fig.S7b, single experiments
Protocol: as §2
Hana3A cells were seeded on 96-well white microplates (SPL) and transfected with plasmids encoding CRE-luciferase, OR52cs or R265^6.59A mutant, Renilla luciferase, RTP1S, and Ric8b at a […] ratio 24 h after seeding. 48 h after infection, cells were treated with odorants and incubated at 37 °C for 4 h. Luminescence was measured using a Tristar 2 LB 942 multimode reader (Berthold). All values were divided by the Renilla luciferase activity to normalize the effect of cell confluence. All data were analyzed using GraphPad Prism 9.4.1.

[6] = system: OR52L1; set-up: method as in earlier work; details: cited from earlier work
[7] = odorant 9.18274e-8 M, Fig.S8b source data
[8] = odorant 9.18274e-7 M, Fig.S8b source data
[9] = odorant 9.18274e-6 M, Fig.S8b source data
[10] = odorant 3.0303e-5 M, Fig.S8b source data
[11] = odorant 0.0001 M, Fig.S8b source data
[12] = odorant 0.001 M, Fig.S8b source data
[13] = odorant 9.18274e-6 M, Fig.1a source data
[14] = odorant 3.0303e-5 M, Fig.1a source data
[15] = odorant 0.0001 M, Fig.1a source data

Compound	cAMP response [1, 7]	cAMP response [1, 8]	cAMP response [1, 9]	cAMP response [1, 10]	cAMP response [1, 11]	cAMP response [1, 12]	cAMP response ([2]; odorant 9.18274e-8 M)	cAMP response ([2]; odorant 9.18274e-7 M)	cAMP response ([2]; odorant 9.18274e-6 M)	cAMP response ([2]; odorant 3.0303e-5 M)	cAMP response ([2]; odorant 0.0001 M)	cAMP response ([2]; odorant 0.001 M)	cAMP response ([3]; odorant 9.18274e-8 M)	cAMP response ([3]; odorant 9.18274e-7 M)	cAMP response ([3]; odorant 9.18274e-6 M)	cAMP response ([3]; odorant 3.0303e-5 M)	cAMP response ([3]; odorant 0.0001 M)	cAMP response ([3]; odorant 0.001 M)	cAMP response [1, 13]	relative fold (luciferase activity over DMSO) [4]	other results
CCCC(=O)O [Butyrate]	-0.08428% and 0.1653% and 0.2939%	-0.5369% and 0.4001% and -0.04745%	0.134% and 0.6883% and 0.4284%	0.1103% and 0.05302% and 0.2786%	-0.1073% and 0.8927% and 0.1591%	1.5929% and 1.31% and 1.1069%	0.4134% and 1.119% and 0.2589%	0.6599% and 0.9287% and 0.2324%	1.238% and 1.86% and 0.7353%	1.067% and 2.455% and 1.672%	1.838% and 4.182% and 3.8607%	12.4605% and 15.8218% and 16.2328%	0.537% and 0.1319% and 1.733%	0.488% and 0.3268% and 1.1839%	0.5541% and 0.2838% and 1.329%	0.4886% and 0.5179% and 1.414%	0.8581% and 0.2707% and 1.963%	2.495% and 1.981% and 6.452%			
CCCCCCCCCC(=O)O [Decanoate, decanoate]																			23.4129 and 25.1996 and 45.8933	1.3086 fold and 1.135 fold and 1.747 fold and 1.1432 fold	
CCCCCCC(=O)O [Heptanoate, heptanoate]							0.3154% and 0.3231% and 0.3938%	4.347% and 1.257% and 3.311%	29.4811% and 22.451% and 26.2109%	75.795% and 74.3485% and 82.8548%	83.9682% and 91.5635% and 102.817%	81.746% and 93.3745% and 90.7212%	0.8685% and 0.5114% and 0.9157%	1.104% and 0.7302% and 1.422%	3.442% and 2.688% and 4.371%	27.9975% and 25.6918% and 43.6578%	66.0899% and 63.5108% and 78.243%	94.8324% and 85.8407% and 105.113%		1.17 fold and 1.091 fold and 1.293 fold and 0.9952 fold	cAMP response [1, 14]: 56.3478 and 75.8757 and 80.5266; cAMP response [1, 15]: 81.4095 and 85.4775 and 102.977; cAMP response ([1]; odorant 0.001 M, Fig.1a source data): 96.609 and 80.1017 and 111.088; downstream signal / selectivity (in words) ([3]; Supplementary Fig. 8): enhanced selectivity
CCCCCC(=O)O [Hexanoate, hexanoate]							1.222% and -0.2583% and 0.8037%	3.048% and 0.3713% and 1.148%	18.0149% and 8.5338% and 10.0807%	41.8588% and 26.1015% and 26.6027%	60.5576% and 50.8798% and 56.2545%	83.4195% and 80.8044% and 89.7505%	0.5855% and -0.5118%	0.5361% and -0.697%	0.7501% and -0.4246%	1.164% and -0.1819%	1.41% and -0.4498%	3.85% and 2.176%		1.1154 fold and 1.251 fold and 1.361 fold and 1.012 fold	response / preference (in words) ([2]; Supplementary Fig. 8): increased responses
CCCCCCCCC(=O)O [Nonanoate, nonanoate]																			36.8538 and 30.3132 and 25.7666	1.195 fold and 0.996 fold and 1.289 fold and 1.267 fold	cAMP response [1, 14]: 65.8721 and 78.3812 and 58.155; cAMP response [1, 15]: 84.5947 and 88.3315 and 72.5955
CCCCCCCCO [Octanol, octanol]																					activation of OR52cs (in words) ([5]; Supplementary Fig. 7): failed to activate; relative fold of CRE luciferase activity ([5]; odorant 10 μM): 1.663 fold and 1.557 fold and 1.263 fold and 1.4999 fold; relative fold of CRE luciferase activity ([5]; odorant 50 μM): 1.747 fold and 1.809 fold and 1.706 fold and 1.694 fold; relative fold of CRE luciferase activity ([5]; odorant 100 μM): 1.917 fold and 1.93 fold and 1.901 fold and 2.061 fold; relative fold of CRE luciferase activity ([5]; odorant 250 μM): 1.931 fold and 2.053 fold and 2.136 fold and 2.342 fold; relative fold of CRE luciferase activity ([5]; odorant 500 μM): 1.887 fold and 2.082 fold and 2.24 fold and 2.823 fold
CCCCC(=O)O [Pentanoate, pentanoate]	-0.162% and 0.6359% and -0.04254%	0.07645% and 0.3953% and 0.2459%	0.2758% and 0.7357% and 0.01532%	0.2715% and 0.6901% and 0.4212%	0.1615% and 1.39% and 0.4292%	2.769% and 2.642% and 1.705%	-0.5993% and 0.7689% and 1.106%	-0.2116% and 0.634% and 0.6548%	0.981% and 2.2804% and 2.576%	3.113% and 5.861% and 4.955%	9.203% and 15.4507% and 12.8173%	39.0499% and 48.7069% and 47.2503%	0.9264% and 0.2953% and 1.001%	0.9435% and 0.3179% and 1.755%	1.032% and 0.4577% and 1.961%	1.125% and 0.847% and 2.468%	1.499% and 1.023% and 3.422%	5.439% and 4.505% and 7.762%			response of OR52L1 (in words) [6]: responsive
CCC(=O)O [Propionate, propionate]	-0.2092% and 0.1117% and 0.5205%	-0.1831% and 0.1609% and 0.123%	-0.2867% and 0.1185% and 0.09817%	0.2368% and 0.05491% and -0.002619%	-0.3215% and 0.04237% and 0.3227%	0.5115% and 1.283% and 1.204%	0.9618% and -0.01314% and -0.2398%	1.572% and -0.593% and -0.7182%	1.935% and -0.7307% and 0.6877%	2.83% and 0.05137% and 0.2753%	2.508% and 0.3655% and 0.1006%	6.973% and 2.2608% and 3.165%	0.2434% and 0.9095%	-0.2446% and -2.828%	0.996% and -2.758%	-1.498% and -2.916%	-0.9959% and -2.168%	2.021% and 1.439%			
CCCCCCCCCCC(=O)O [Undecanoate, undecanoate]																			17.2544 and 14.2907 and 24.4976	1.911 fold and 1.478 fold and 1.422 fold and 1.276 fold	
